Laboratory results from patent US8524978B2, “Composition for production of plant body having improved sugar content, and use thereof” (Japan Science and Technology Agency, priority 2007, dated 2013).

Assays:
Type in all cases: in vivo
[1] = system: Citrus unshiu; assay: Sugar content determination of Citrus unshiu fruit with refractometer (Example 9); conditions: leaf surface coated with 0.5 mM one week before harvest; vs no GSSG; ANOVA 5%
Experimental: In the present example, Citrus unshiu was cultivated. Specifically, one week before an expected date of harvesting Citrus unshiu fruit, a surface of a leaf on a branch having the fruit to be harvested was coated with 0.5 mM GSSG. The fruit was harvested on the expected date.
Next, the fruit harvested was subjected to a sensory test of sugar content. As a result, it was determined that the fruit applied with GSSG increased in sugar content and decreased in acidity. Further, it was determined that the fruit applied with GSSG increased in weight. Furthermore, the fruit obtained was subjected to sugar content determination using “Pocket” Refractometer APAL-1 (ATAGO CO., LTD.). For comparison, fruit applied with no GSSG was also subjected to the sugar content determination. […] In FIG. 6, the vertical scale indicates sugar content (Brix, unit: %).

[2] = system: Lycopersicum esculentum; assay: Cultivation of Lycopersicum esculentum with GSSG or GSH, sensory tests of fruit (Example 1); conditions: 50 mL of 0.5 mM at root twice a week, 60 days
Description: In the present example, Lycopersicum esculentum was cultivated with use of GSSG or GSH. Details of cultivation are described below.
First, Lycopersicum esculentum seedlings (TAKII & CO. Ltd., product name: Osama tomato reika) were transplanted into a hydroponic culture pot ( 1/2000 a). In the hidroponic culture pot, 6 L of vermiculite (ASAHI INDUSTRIES Co., LTD.), 3 L of KUREHA horticultural soil (KUREHA CORPORATION), and 3 L of vermiculite were layered as a lower, middle, and upper layers, respectively.
During the cultivation of Lycopersicum esculentum, 50 mL of 0.5 mM GSSG or 0.5 mM GSH (adjusted with 0.1N NaOH to be at pH 7) was applied twice a week at a root per plant. The Lycopersicum esculentum plants were grown for 60 days without being subjected to bud removal. Last 10 days was used as a harvest period for harvesting fruit of the plants. For comparison, a Lycopersicum esculentum plant was grown under the same condition, except that GSSG and GSH were not applied. To the plants of any condition, 3 g of Kumiai phosphorate ammonium nitrate potassium S-604 (Chisso Asahi Fertilizer Co., Ltd.) was applied as an additional fertilizer once in 2 weeks.
Next, the fruit harvested was subjected to sensory tests of sugar content and the like. As a result, it was determined that fruit of the plant applied with GSSG increased in sugar content compared to that of the plant not applied with GSSG or GSH. Further, it was determined that the plant applied with GSSG increased in number of fruit. It was determined that fruit of the plant applied with GSH increased in sugar content and acidity.

[3] = system: Prunus avium (Napoleon); assay: Sugar content determination of Prunus avium fruit with refractometer (Example 8); conditions: leaf surface coated with 0.5 mM 4 and 3 weeks before harvest; vs no GSSG; ANOVA 5%
Experimental: In the present example, Prunus avium was cultivated. Specifically, 4 weeks and 3 weeks before an expected date of harvesting Prunus avium (Napoleon) fruit, a surface of a leaf on a branch having the fruit to be harvested was coated with 0.5 mM GSSG. The fruit was harvested on the expected date.
Next, the fruit harvested was subjected to a sensory test of sugar content. As a result, it was determined that the fruit applied with GSSG increased in sugar content and decreased in acidity. Further, it was determined that the fruit applied with GSSG increased in weight. Furthermore, the fruit obtained was subjected to sugar content determination using “Pocket” Refractometer APAL-1 (ATAGO CO., LTD.). For comparison, fruit applied with no GSSG was also subjected to the sugar content determination. […] In FIG. 5, the vertical scale indicates sugar content (Brix, unit: %).

[4] = system: Lycopersicum esculentum; assay: Change of sugar content over time after one application of GSH or GSSG (Example 6); conditions: 50 mL of 0.5 mM once at root 90 days after sowing; fruit harvested day 0 to day 4
Experimental: In the present example, a sugar content of a plant was determined after a substance for regulating an oxidation-reduction state of a cell was applied to the plant. The substance for regulating an oxidation-reduction state of a cell was GSH or GSSG. As in the case of Example 1, Lycopersicum esculentum was used as the plant. Specifically, the following operations were carried out.
Ninety days after sowing of Lycopersicum esculentum seeds, Lycopersicum esculentum plants were subjected to a GSH or GSSG treatment. The Lycopersicum esculentum plants were cultivated by the same method as in Example 1 except for the GSH or GSSG treatment. The GSH or GSSG treatment was such that 50 mL of 0.5 mM GSSH or 0.5 mM GSH (adjusted with 0.1N NaOH to be at pH 7) was applied once at a root per plant. Then, fruit of the plants was harvested every day from the 0th day until the 4th day after application of GSH or GSSG, and subjected to sugar content determination. […] FIG. 3 is a graph showing a determination result of relation between sugar content and the number of days from an application day of GSH or GSSG. In FIG. 3, the vertical scale indicates sugar content (Brix, unit: %) and the horizontal scale indicates days from the application day. In FIG. 3, lines labeled with circles, triangles, and squares show results of the plants applied with GSH, GSSG, and no GSH and no GSSG, respectively. […]

[5] = system: Zea mays L. var. saccharata Sturt; assay: Cultivation of Zea mays L. var. saccharata Sturt with GSSG, sensory test (Example 3); conditions: 50 mL of 0.2 mM, 4 times at root and 4 times sprayed to leaves
Description: In the present example, Zea mays L. var. saccharata Sturt was cultivated. First, a Zea mays L. var. saccharata Sturt seed (TAKII & CO. Ltd., product number: Canberra 90) was sown in vermiculite (ASAHI INDUSTRIES Co., LTD.). Two weeks after sowing, a Zea mays L. var. saccharata Sturt plant was transplanted to a hydroponic culture pot described in Example 1. To the plant, 3 g of Kumiai phosphorate ammonium nitrate potassium S-604 (Chisso Asahi Fertilizer Co., Ltd.) was applied as an additional fertilizer 4 weeks and 6 weeks after the sowing.
Within 2 weeks from the 5th week after the sowing, 50 mL of 0.2 mM GSSG was applied 4 times at a root of the plant. Within 2 weeks from the 7th week after the sowing, 50 mL of 0.2 mM GSSG was sprayed 4 times to leaves of the plant. For comparison, a Zea mays L. var. saccharata Sturt plant was cultivated by the same method as in the present example, except that GSSG was not applied, and fruit thereof was harvested.
Fruit was harvested 90 days after the sowing and subjected to a sensory test of sugar content. As a result, it was determined that fruit of the plant applied with GSSG increased in sugar content compared to that of the plant applied with no GSSG. Further, it was determined that the plant applied with GSSG increased in size and number of fruit.

[6] = system: Vitis labrusca (Delaware); assay: Cultivation of Vitis labrusca with GSSG or GSH, sensory test (Example 5)
Experimental: In the present invention, Vitis labrusca was cultivated. Specifically, immediately after flowering of a Vitis labrusca (Delaware) plant, a mixed solution of 1 mM gibberellin (GA3) and 1 mM of an agent was applied to anthotaxy of the plant. The agent was GSSG or GSH. Then, the plant was coated with the agent and thereafter produced fruit was harvested. For comparison, a Vitis labrusca plant was cultivated in the same way, except that GA3, but not GSSG or GSH, was applied, and fruit thereof was harvested and subjected to a sensory test described below.
The fruit harvested was subjected to a sensory test of sugar content. As a result, it was determined that fruit of the plant applied with GA3 and GSSG or GSH increased in sugar content compared to that of the plant applied with only GA3. Further, it was determined that the plant applied with GSSG and GA3 increased in size of fruit.

Substance: oxidized glutathione [GSSG]
- sugar content of fruit (Brix) [1]: significantly improved
- number of fruit [2]: increased
- sugar content of fruit (sensory test) ([2]; compared to plant not applied with GSSG or GSH): increased
- sugar content of fruit (Brix) [3]: significantly improved
- sugar content of fruit (Brix) after application [4]: rapidly improve
- number of fruit [5]: increased
- size of fruit [5]: increased
- sugar content of fruit (sensory test) ([5]; harvest 90 days after sowing, vs no GSSG): increased
- size of fruit ([6]; 1 mM agent mixed with 1 mM GA3, applied to anthotaxy): increased
- sugar content of fruit (sensory test) ([6]; 1 mM agent mixed with 1 mM gibberellin (GA3), applied to anthotaxy, compared to plant applied with only GA3): increased
- sugar content ([6]; applied without GA3): increased
